Reference: DBAASP
Values after ≈ are worked out from the molar mass of the structure shown. Blank lines part the entries; values can stand above or below the compound they belong to.

Tests used:
Assay in all cases: ≥ marks a high value that may be exact or a test limit, other limits are often not marked, values filed in µg/mL are converted to µM
[1] = test system: Staphylococcus aureus NCTC 8325
[2] = test system: Escherichia coli ATCC 25922
Acinetobacter baumannii = test system: Acinetobacter baumannii
[3] = test system: Pseudomonas aeruginosa ATCC 27853
Escherichia coli = test system: Escherichia coli
[4] = test system: Acinetobacter baumannii ATCC 19606
Klebsiella pneumoniae = test system: Klebsiella pneumoniae
[5] = test system: Staphylococcus aureus ATCC 25923
Staphylococcus aureus = test system: Staphylococcus aureus
Pseudomonas aeruginosa = test system: Pseudomonas aeruginosa
[6] = test system: Klebsiella pneumoniae ATCC 13883

- MIC [1]: ≥ 80 µM
- MIC [2]: 20 µM (≈ 53.7 µg/mL)
Structure (SMILES): CC[C@H](C)[C@H](NC(=O)CNC(=O)[C@H](CCCCN)NC(=O)[C@H](Cc1ccccc1)NC(=O)[C@@H](NC(=O)[C@H](CCCCN)NC(=O)[C@H](CCCCN)NC(=O)[C@H](CC(C)C)NC(=O)[C@H](C)NC(=O)[C@H](CC(N)=O)NC(=O)[C@H](CC(C)C)NC(=O)CN)C(C)C)C(=O)N[C@@H](Cc1cnc[nH]1)C(=O)N[C@@H](CCC(=O)O)C(=O)N[C@@H](C)C(=O)N[C@H](C(=O)N[C@@H](CCCCN)C(=O)N[C@@H](CC(C)C)C(=O)N[C@H](C(=O)N[C@@H](CC(N)=O)C(=O)N[C@@H](CC(N)=O)C(=O)N[C@@H](Cc1cnc[nH]1)C(=O)N[C@H](C(=O)N[C@@H](CCC(N)=O)C(=O)O)C(C)C)[C@@H](C)CC)[C@@H](C)CC [GLNALKKVFKGIHEAIKLINNHVQ]

- MIC (Acinetobacter baumannii): 0.5 µM (≈ 1.02 µg/mL)
- MIC [3]: 2 µM (≈ 4.1 µg/mL)
- MIC (Escherichia coli): 4 µM (≈ 8.19 µg/mL)
- MIC [4]: 0.707 µM (≈ 1.45 µg/mL)
- MIC (Klebsiella pneumoniae): 4 µM (≈ 8.19 µg/mL)
- MIC [5]: 11.3 µM (≈ 23.2 µg/mL)
- MIC (Staphylococcus aureus): 5.66 µM (≈ 11.6 µg/mL)
- MIC [2]: 0.354 µM (≈ 0.724 µg/mL)
- MIC (Pseudomonas aeruginosa): 2.83 µM (≈ 5.79 µg/mL)
- MIC [6]: 2 µM (≈ 4.1 µg/mL)
Structure (SMILES): CC[C@H](C)[C@H](NC(=O)[C@H](CCCCN)NC(=O)[C@H](CC(C)C)NC(=O)[C@H](C)NC(=O)[C@H](CCCCN)NC(=O)[C@H](CC(C)C)NC(=O)[C@H](C)NC(=O)CNC(=O)[C@H](CCCCN)NC(=O)[C@H](C)NC(=O)[C@@H](NC(=O)[C@@H](N)CCCCN)[C@@H](C)CC)C(=O)N[C@@H](C)C(=O)N[C@@H](CCCCN)C(=O)N[C@H](C(=O)N[C@@H](C)C(=O)N[C@@H](CC(C)C)C(=O)N[C@@H](CCCCN)C(=O)N[C@@H](C)C(=O)N[C@@H](CC(C)C)C(N)=O)C(C)C [KIAKGALKALKIAKVALKAL]

Further lines, the compound ahead of its results:

Structure (SMILES): CC[C@H](C)[C@H](NC(=O)CNC(=O)[C@H](CCC(N)=O)NC(=O)[C@H](Cc1ccccc1)NC(=O)[C@@H](NC(=O)[C@H](CCCCN)NC(=O)[C@H](CCCCN)NC(=O)[C@H](Cc1ccccc1)NC(=O)[C@H](C)NC(=O)[C@H](CC(N)=O)NC(=O)[C@H](CC(C)C)NC(=O)CN)C(C)C)C(=O)N[C@@H](Cc1cnc[nH]1)C(=O)N[C@@H](CCC(=O)O)C(=O)N[C@@H](C)C(=O)N[C@H](C(=O)N[C@@H](CCCCN)C(=O)N[C@@H](CC(C)C)C(=O)N[C@H](C(=O)N[C@@H](CC(N)=O)C(=O)N[C@@H](CC(N)=O)C(=O)N[C@@H](Cc1cnc[nH]1)C(=O)N[C@H](C(=O)N[C@@H](CCC(N)=O)C(=O)O)C(C)C)[C@@H](C)CC)[C@@H](C)CC [GLNAFKKVFQGIHEAIKLINNHVQ]
- MIC [1]: ≥ 160 µM
- MIC [2]: 20 µM (≈ 54.4 µg/mL)

Structure (SMILES): CC[C@H](C)[C@H](NC(=O)CNC(=O)[C@H](CCCCN)NC(=O)[C@H](Cc1ccccc1)NC(=O)[C@@H](NC(=O)[C@H](CCCCN)NC(=O)[C@H](CCCCN)NC(=O)[C@H](CC(C)C)NC(=O)[C@H](C)NC(=O)[C@H](CCCCN)NC(=O)[C@H](CC(C)C)NC(=O)CN)C(C)C)C(=O)N[C@@H](Cc1cnc[nH]1)C(=O)N[C@@H](CCCCN)C(=O)N[C@@H](C)C(=O)N[C@H](C(=O)N[C@@H](CCCCN)C(=O)N[C@@H](CC(C)C)C(=O)N[C@H](C(=O)N[C@@H](CC(N)=O)C(=O)N[C@@H](CCCCN)C(=O)N[C@@H](Cc1cnc[nH]1)C(=O)N[C@H](C(=O)N[C@@H](CCCCN)C(=O)O)C(C)C)[C@@H](C)CC)[C@@H](C)CC [GLKALKKVFKGIHKAIKLINKHVK]
- MIC [1]: 20 µM (≈ 54.2 µg/mL)
- MIC [2]: 5 µM (≈ 13.6 µg/mL)

Structure (SMILES): CSCC[C@H](NC(=O)[C@H](CC(C)C)NC(=O)[C@H](CO)NC(=O)CNC(=O)[C@H](C)NC(=O)[C@@H](NC(=O)[C@H](CC(N)=O)NC(=O)[C@H](CCCCN)NC(=O)[C@H](CC(C)C)NC(=O)[C@@H](NC(=O)[C@H](CC(N)=O)NC(=O)[C@H](CCCCN)NC(=O)CNC(=O)[C@@H](NC(=O)[C@H](CCCCN)NC(=O)[C@H](CCCCN)NC(=O)[C@H](Cc1ccccc1)NC(=O)[C@@H](NC(=O)[C@H](CC(N)=O)NC(=O)[C@H](Cc1ccccc1)NC(=O)[C@H](CC(C)C)NC(=O)CN)C(C)C)C(C)C)C(C)C)C(C)C)C(=O)N[C@@H](CC(=O)O)C(=O)N[C@@H](CC(N)=O)C(=O)N[C@@H](CC(C)C)C(=O)N[C@@H](CCCCN)C(=O)N[C@H]1CSSC[C@@H](C(=O)O)NC(=O)[C@H](CCC(=O)O)NC(=O)CNC(=O)[C@H](CO)NC(=O)[C@H](C(C)C)NC(=O)[C@H](CCCCN)NC1=O [GLFNVFKKVGKNVLKNVAGSLMDNLKCKVSGEC]
- MIC [1]: ≥ 50 µM
- MIC [2]: 3 µM (≈ 10.6 µg/mL)
